Target: Glucose-6-phosphatase catalytic subunit (Sus scrofa)
Test: Compound was evaluated for inhibition of Glucose-6-Phosphatase from Triton X-100 disrupted pig liver microsomes.

Compound | IC50 [nM]
CN(C)c1ccc(/C=N/N(Cc2ccccc2)Cc2ccccc2)cc1 [[4-(Dibenzyl-hydrazonomethyl)-phenyl]-dimethyl-amine] | 100000
C(=N\N(Cc1ccccc1)Cc1ccccc1)/c1cccnc1 [N,N-Dibenzyl-N'-[1-pyridin-3-yl-meth-(E)-ylidene]-hydrazine] | 3700
C(=N\N(Cc1ccccc1)Cc1ccccc1)/c1cccs1 [N,N-Dibenzyl-N'-[1-thiophen-2-yl-meth-(E)-ylidene]-hydrazine] | 1500
Oc1ccc(/C=N/N(Cc2ccccc2)Cc2ccccc2)cc1 [4-(Dibenzyl-hydrazonomethyl)-phenol] | 2400
OCc1ccc(/C=N/N(Cc2ccccc2)Cc2ccccc2)o1 [[5-(Dibenzyl-hydrazonomethyl)-furan-2-yl]-methanol] | 16000
Clc1ccc(/C=N/N(Cc2ccccc2)Cc2ccccc2)s1 [N,N-Dibenzyl-N'-[1-(5-chloro-thiophen-2-yl)-meth-(E)-ylidene]-hydrazine] | 170
COc1ccc2c(c1)CCCC2=NN(Cc1ccccc1)Cc1ccccc1 [N,N-Dibenzyl-N'-[6-methoxy-3,4-dihydro-2H-naphthalen-(1E)-ylidene]-hydrazine] | > 50000
C(=N\N(Cc1ccccc1)Cc1ccccc1)/c1ccco1 [N,N-Dibenzyl-N'-[1-furan-2-yl-meth-(E)-ylidene]-hydrazine] | 1100
CCc1ccc(/C=N/N(Cc2ccccc2)Cc2ccccc2)o1 [N,N-Dibenzyl-N'-[1-(5-ethyl-furan-2-yl)-meth-(E)-ylidene]-hydrazine] | 330
COc1ccccc1/C=N/N(Cc1ccccc1)Cc1ccccc1 [N,N-Dibenzyl-N'-[1-(2-methoxy-phenyl)-meth-(E)-ylidene]-hydrazine] | > 100000
Clc1ccc(/C=N/N(Cc2ccccc2)Cc2ccccc2)cc1 [N,N-Dibenzyl-N'-[1-(4-chloro-phenyl)-meth-(E)-ylidene]-hydrazine] | 240
COc1ccc(/C=N/N(Cc2ccccc2)Cc2ccccc2)cc1 [N,N-Dibenzyl-N'-[1-(4-methoxy-phenyl)-meth-(E)-ylidene]-hydrazine] | 220
Clc1ccc(/C=N/N(Cc2ccccc2)Cc2ccccc2)cc1Cl [N,N-Dibenzyl-N'-[1-(3,4-dichloro-phenyl)-meth-(E)-ylidene]-hydrazine] | 2000
Clc1cc(Cl)cc(/C=N/N(Cc2ccccc2)Cc2ccccc2)c1 [N,N-Dibenzyl-N'-[1-(3,5-dichloro-phenyl)-meth-(E)-ylidene]-hydrazine] | > 100000
C(=N\N(Cc1ccccc1)Cc1ccccc1)/c1ccccc1 [N,N-Dibenzyl-N'-[1-phenyl-meth-(E)-ylidene]-hydrazine] | 1500

— BindingDB's records for doi:10.1016/s0960-894x(01)00395-x (Novo Nordisk, 2001)
